Test results reported in patent US20240090547A1, “SWEETENER COMPOSITIONS COMPRISING MOGROSIDES AND USES THEREOF” (Firmenich Incorporated, priority 2021, published 2024).

Tests used:
Assay type in all cases: in vivo, human
panel of volunteers [1] = assay: Sensory testing for vanilla milk; settings: for Licorice Aftertaste / Lingering Sweetness / Mouth Coating / Overall Off-Taste: aftertaste
Description: (§1) A panel of volunteers evaluated siamenoside I for in-mouth attributes (sweetness, delayed sweetness, sourness, bitterness, global flavor intensity, thickness/body, and astringence) and aftertaste (AT) attribtues (lingering sweetness, overall off-taste intensity, licorice off-tast, bitterness off-taste, and mouth coating) on a 10-point scale. Two replicate sessions were conducted, with a 20 minute break between sessions. There was a 90 second delay between samples within a session. Panelists evaluated all samples in a first session and evaluated the samples again a second time in a second session. Control samples of Rebaudioside M (Reb M) were evaluated during all sessions as a control. Mogroside V was also evaluated and sensory data for mogroside V is provided.
(§2) Data analysis was performed using 2-way analysis of variance (ANOVA) with interaction using Tukey's HSD test. The data was normalized for each attribute according to average scores for Reb M.
A panel of volunteers evaluated vanilla milk for in-mouth attributes and aftertaste attributes according to the methods described in Example 1 above.
The average normalized in-mouth attributes for each sample of vanilla milk was evaluated and the results are provided below.
The average normalized aftertaste attributes for each sample of vanilla milk containing siamenoside I was evaluated and the results are provided below.

panel of volunteers [2] = assay: Sensory testing for sparkling orange beverage
Description: as §1, §2
A panel of volunteers evaluated a sparkling orange beverage containing siamenodie I for in-mouth attributes and aftertaste attributes according to the methods described in Example 1 above.
The average normalized in-mouth attributes for a sample of sparkling orange beverage containing siamenoside I was evaluated and the results are provided below.
The average normalized aftertaste attributes for a sample of sparkling orange beverage containing siamenoside I was evaluated and the results are provided below.

expert panelists = assay: Expert panelists' comparison of mogrosides with stevia; settings: 'Examples 4 and 5', in words
panel of flavorists [3] = assay: Additional sensory testing for lemon-flavored (lemon-lime) beverage, flavorist panel; settings: 600 ppm mogrosides, 0 to 10 scale, letter in parentheses = Duncan's test group; for Sweet Linger: aftertaste, after expectoration; for Bitterness / Mouthfeel/Thickness / Peak Sweetness / Upfront Sweetness: in-mouth
Description: (§3) A panel of flavorists at three locations evaluated lemon-lime beverage various mogrosides at a concentration of 600 ppm mogrosides for in-mouth attributes (peak sweetness, upfront sweetness, bitterness, and mouthfeel/thickness) and aftertaste attributes (sweet taste linger), on a 0 to 10 scale. The in-mouth attributes were evaluated while holding the sample in the mouth, while the aftertaste attributes were evaluated after expectoration.

panel of volunteers [4] = assay: Sensory testing for lemon-lime carbonated soft drink; design: key to Sweetness / Delayed Sweetness / Bitterness / Lingering Sweetness / Overall Off-Taste / Licorice Aftertaste / Bitterness Aftertaste: 10-point scale; scores normalized to average Reb M scores
Description: as §1, §2
A panel of volunteers evaluated the siamenoside I-containing lemon-lime carbonated soft drink for in-mouth attributes and aftertaste attributes according to the methods described in Example 1 above.
The average normalized in-mouth attributes for a sample of lemon-lime carbonated soft drink having […] was evaluated below.
The average normalized aftertaste attributes for a sample of lemon-lime carbonated soft drink having siamenoside I was evaluated below.

panel of flavorists [5] = assay: Additional sensory testing for vanilla milk, flavorist panel; settings: 400 ppm mogrosides, 0 to 10 scale, letter in parentheses = Duncan's test group; for Sweet Linger: aftertaste, after expectoration; for Bitterness / Mouthfeel/Thickness / Peak Sweetness / Upfront Sweetness: in-mouth
Description: as §3, with “vanilla milk containing” for “lemon-lime beverage”, “400” for “600”, “expectoration. The data was analyzed using Duncan's new multiple range test and the scores are provided in the data below in parentheses.” for “expectoration.”

panel of volunteers [6] = assay: Sensory testing for apple drink (panel, in-mouth and aftertaste attributes); design: key to Sweetness / Delayed Sweetness / Bitterness / Lingering Sweetness / Overall Off-Taste / Licorice Aftertaste / Bitterness Aftertaste / Mouth Coating: 10-point scale; normalized per attribute to average Reb M scores; settings: for Bitterness / Delayed Sweetness / Global Flavor Intensity / Sweetness / Thickness/Body: in-mouth, average normalized score
Description: as §1, §2
The average normalized in-mouth attributes for each sample of apple drink containing siamenoside I was evaluated below.
The average sweetness for each sample of apple drink containing siamenoside I was evaluated below.

[7] = 200 ppm (mogroside V 200 mg [sic]), average normalized score, 10-point scale
[8] = 200 ppm (mogroside V 200 mg [sic]), in-mouth, average normalized score, 10-point scale
[9] = 400 ppm (mogroside V 400 mg [sic]), average normalized score, 10-point scale
[10] = 400 ppm (mogroside V 400 mg [sic]), in-mouth, average normalized score, 10-point scale
[11] = at both 200 ppm and 400 ppm, in words
[12] = orange sparkling beverage, in words
[13] = sparkling orange beverage, 250 ppm (mogroside V 250 mg [sic]), aftertaste, average normalized score, 10-point scale
[14] = sparkling orange beverage, 250 ppm (mogroside V 250 mg [sic]), in-mouth, average normalized score, 10-point scale
[15] = 600 ppm (mogroside V 600 mg [sic]), aftertaste, average normalized score, 10-point scale
[16] = 600 ppm (mogroside V 600 mg [sic]), in-mouth, average normalized score, 10-point scale
[17] = 250 ppm (mogroside V 250 mg [sic]), aftertaste, 10-point scale
[18] = 250 ppm (mogroside V 250 mg [sic]), 10-point scale
[19] = 500 ppm (mogroside V 500 mg [sic]), aftertaste, 10-point scale
[20] = 500 ppm (mogroside V 500 mg [sic]), 10-point scale

## C[C@H](CC[C@@H](O[C@@H]1O[C@H](CO[C@@H]2O[C@H](CO)[C@@H](O)[C@H](O)[C@H]2O)[C@@H](O)[C@H](O)[C@H]1O[C@@H]1O[C@H](CO)[C@@H](O)[C@H](O)[C@H]1O)C(C)(C)O)[C@H]1CC[C@@]2(C)[C@@H]3CC=C4[C@@H](CC[C@H](O[C@@H]5O[C@H](CO)[C@@H](O)[C@H](O)[C@H]5O)C4(C)C)[C@]3(C)[C@H](O)C[C@]12C [siamenoside I]
Panel of volunteers [1]; [7]
  Licorice Aftertaste: 1.2
  Lingering Sweetness: 3.3
  Mouth Coating: 3.3
  Overall Off-Taste: 1.8
Panel of volunteers [1]; [8]
  Astringence: 0.7
  Delayed Sweetness: 2.2
  Fattiness: 3.5
  Sourness: 1.1
  Sweetness: 5.6
Panel of volunteers [1]; [9]
  Licorice Aftertaste: 1.7
  Lingering Sweetness: 4.8
  Mouth Coating: 0.5
  Overall Off-Taste: 2.4
Panel of volunteers [1]; [10]
  Astringence: 0.8
  Bitterness: 0.8
  Delayed Sweetness: 2.6
  Fattiness: 4.3
  Global Flavor Intensity: 4.6
  Sourness: 0.7
  Sweetness: 7.7
Panel of volunteers [1]; [11]
  lingering sweetness compared with Reb M: increased
  sweetness compared with Reb M: increased
Panel of volunteers [1]; in words
  bitterness compared with mogroside V: lower bitterness
  delayed sweetness compared with mogroside V: higher
  global flavor intensity compared with mogroside V: higher global flavor intensity
  sweetness compared with mogroside V: higher
Panel of volunteers [2]; [12]
  delayed sweetness compared with Reb M: slightly higher
  in mouth and aftertaste profile compared with Reb M: comparable to that of Reb M
  sweetness compared with Reb M: slightly higher
  sweetness compared with mogroside V: higher sweetness
Panel of volunteers [2]; [13]
  Licorice Aftertaste: 2.8
  Lingering Sweetness: 4.4
  Mouth Coating: 2.9
  Overall Off-Taste: 3.6
Panel of volunteers [2]; [14]
  Delayed Sweetness: 3.7
  Sweetness: 5.9
Expert panelists
  bitter aftertaste compared with stevia: lower bitter aftertaste
  licorice aftertaste compared with stevia: lower licorice aftertaste
  mouthfeel compared with stevia: better mouthfeel
Panel of flavorists [3]
  Sweet Linger: 4.429 (bc)
  Bitterness: 2.571 (a)
  Mouthfeel/Thickness: 3.429 (ab)
  Peak Sweetness: 6.571 (b)—
  Upfront Sweetness: 4.286 (b)
Panel of volunteers [4]; [15]
  Bitterness Aftertaste: 1.3
  Licorice Aftertaste: 3.0
  Lingering Sweetness: 4.4
  Overall Off-Taste: 4.1
Panel of volunteers [4]; [16]
  Bitterness: 1.6
  Delayed Sweetness: 4.1
  Global Flavor Intensity: 4.7
  Sweetness: 6.0
Panel of volunteers [4]; 600 ppm, in words
  bitterness compared with Reb M: overall lower bitterness
  global flavor intensity compared with Reb M: same
  sweetness compared with Reb M: same
Panel of volunteers [4]; in words
  bitterness aftertaste compared with mogroside V: lower bitterness aftertaste
  bitterness compared with mogroside V: lower bitterness
  global flavor intensity compared with mogroside V: higher global flavor intensity
  in mouth and aftertaste profile compared with Reb M: comparable to that of Reb M
  sweetness compared with mogroside V: higher sweetness
Panel of flavorists [5]
  Sweet Linger: 5.875 (a)
  Bitterness: 1.688 (a)
  Mouthfeel/Thickness: 5.000 (ab)
  Peak Sweetness: 7.375 (a)—
  Upfront Sweetness: 5.938 (ab)
Panel of volunteers [6]; [17]
  Bitterness Aftertaste: 1.3
  Licorice Aftertaste: 2.2
  Lingering Sweetness: 3.2
  Overall Off-Taste: 2.5
Panel of volunteers [6]; [18]
  Bitterness: 1.5
  Delayed Sweetness: 2.3
  Global Flavor Intensity: 3.5
  Sweetness: 4.0
  Thickness/Body: 1.2
Panel of volunteers [6]; [19]
  Licorice Aftertaste: 2.7
  Lingering Sweetness: 4.7
  Mouth Coating: 2.4
  Overall Off-Taste: 3.4
Panel of volunteers [6]; [20]
  Bitterness: 1.7
  Delayed Sweetness: 3.2
  Global Flavor Intensity: 4.4
  Sweetness: 5.3
  Thickness/Body: 1.6
Panel of volunteers [6]; in words
  global flavor intensity compared with mogroside V: higher global flavor intensity
  in-mouth and aftertaste profile compared with Reb M: comparable to that of Reb M
  overall off-taste compared with mogroside V: lower overall off-taste
  sweetness compared with mogroside V: sweeter

## Isomogroside IVE
Expert panelists
  bitter aftertaste compared with stevia: lower bitter aftertaste
  licorice aftertaste compared with stevia: lower licorice aftertaste
  mouthfeel compared with stevia: better mouthfeel
Panel of flavorists [3]
  Sweet Linger: 3.429 (c)
  Bitterness: 1.857 (a)
  Mouthfeel/Thickness: 2.714 (b)
  Peak Sweetness: 4.857 (c)
  Upfront Sweetness: 3.571 (b)
Panel of flavorists [5]
  Sweet Linger: 4.563 (b)
  Bitterness: 1.313 (ab)
  Mouthfeel/Thickness: 4.125 (b)
  Peak Sweetness: 5.938 (c)
  Upfront Sweetness: 5.125 (b)
